The record followed here is US11000033B2, “Ketone or oxime compound, and herbicide” (NISSAN CHEMICAL CORPORATION, priority 2014, dated 2021).

Assay type in all cases: in vivo
For data set [1], the system named is Stellaria media. Description: Test Example 4: herbicidal effect by soil treatment (symbol P). The method, boiled down:
(§1)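 Seeds were sown in sterilized diluvial soil, covered with about 1.5 cm of soil, and the soil surface was sprayed with a water-diluted emulsion of the compound at a predetermined rate. Plants grew in a greenhouse at 25° C. to 30° C.; effects were scored visually 3 weeks after application.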

The next data set has as its system transplanted rice plant. The data set is described as follows: Test Example 1: effect on crop, application before weed generation in submerged conditions (symbol a). The settings on record: application herbicide amount 320 g/ha. The essentials: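 Rice at 2.5 leaf stage transplanted into submerged soil (4 cm depth) sown with three weed species; herbicide applied before weed emergence.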

Data set [2] relates to Lolium multiflorum Lam. The data set is described as follows: Test Example 5: herbicidal effect by foliage application, plastic box (symbol K). The note with it: 320 g/ha, 3 weeks after application. The method, boiled down:
(§2)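 Post-emergence spray; diluvial soil (sterilized), ~1.5 cm seed cover; greenhouse 25–30° C; 14-day-old plants; water-diluted emulsion at predetermined dose; visual score at 3 wk post-treatment.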

Data set [3] relates to Apera spica-venti. The data set is described as follows: Test Example 5: herbicidal effect by foliage application, plastic box (symbol L). The note with it: 320 g/ha, 3 weeks after application. The method, boiled down: as §2
The test system of another data set is rice. The data set is described as follows: Test Example 4: effect on crop by soil treatment (symbol b). The settings on record: for b: directly sowed rice plant, effect on crop grade: application herbicide amount 320 g/ha. The method, boiled down:
(§3)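 Soil-treatment setup: crop and weed seeds were spot-sown into sterilized diluvial soil, then buried beneath approximately 1.5 cm of it, and the boxes were housed in a 25–30° C. greenhouse.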

The test system of the next data set is Veronica persica. Description: Test Example 4: herbicidal effect by soil treatment (symbol R). The essentials:
as §1

Another data set has as its system Monochoria vaginalis. Description: Test Example 2: herbicidal activity, application during weed generation in submerged conditions (symbol C). The note with it: Table 23; application herbicide amount 320 g/ha; grade 0-5 by criteria of Test Example 1. The method, boiled down:
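Seeds sown in flooded alluvial soil (4 cm water) were grown in a 25-30° C greenhouse. At the one- to two-leaf stage, diluted emulsion of compound was applied to the water surface at a predetermined rate. Effect was scored 3 weeks later.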

A further data set has as its system Avena fatua. Description: Test Example 4: herbicidal effect by soil treatment (symbol I). The essentials:
as §1

Data set [4] relates to Echinochloa crus-galli var. crus-galli. Description: Test Example 5: herbicidal effect by foliage application, plastic box (symbol H). The settings on record: 320 g/ha, 3 weeks after application. The essentials:
as §2

Data set [5] relates to Echinochloa oryzacola Vasing. The data set is described as follows: Test Example 1: herbicidal activity, application before weed generation in submerged conditions (symbol A). The note with it: application herbicide amount 320 g/ha. The method, boiled down: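 Pre-emergence, paddy conditions: emulsifiable formulation diluted in water, dosed onto floodwater (4 cm depth) on sowing day. Alluvial soil; weeds sown mixed; rice transplanted at 2.5-leaf stage. Greenhouse 25–30 °C, 3 wk. Score 0–5 (5 = ≥90% kill, 0 = ≤5%).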

In the next data set the test system is Digitaria ciliaris. The data set is described as follows: Test Example 4: herbicidal effect by soil treatment (symbol F). The method, boiled down:
as §1

Another data set concerns soybean. The data set is described as follows: Test Example 4: effect on crop by soil treatment (symbol d). The note with it: for d: soybean, effect on crop grade: application herbicide amount 320 g/ha. The essentials:
as §3

Data set [6] concerns Lolium multiflorum Lam. Description: Test Example 4: herbicidal effect by soil treatment (symbol K). The method, boiled down: as §1
The subject of the next data set is rapeseed. The data set is described as follows: Test Example 4: effect on crop by soil treatment (symbol g). The note with it: for g: rapeseed, effect on crop grade: application herbicide amount 320 g/ha. The essentials:
as §3

The subject of data set [7] is Echinochloa crus-galli var. crus-galli. The data set is described as follows: Test Example 4: herbicidal effect by soil treatment (symbol H). The method, boiled down:
as §1

Data set [8] deals with Stellaria media. Description: Test Example 5: herbicidal effect by foliage application, plastic box (symbol P). The note with it: 320 g/ha, 3 weeks after application. The essentials: as §2
Data set [9] has as its system Apera spica-venti. Description: Test Example 4: herbicidal effect by soil treatment (symbol L). The method, boiled down: as §1
Where [10] appears, read: application herbicide amount 320 g/ha.

Take `CCc1cc(C#C[Si](C)(C)C)cc(C)c1C1=C(O)CC(CC(C)=NOC)C1=O` (mixture of isomers) [6-008]: the “P: Stellaria media, herbicidal effect grade” value (“P: Stellaria media” for short) in the data set with Stellaria media [1] (setting [10]) and in the data set with Stellaria media [8] was 0 (Herbicidal ratio of 5% or lower (almost no effect)) each time. Besides, the “Effect grade on crop, a: transplanted rice plant” value in the data set with transplanted rice plant is listed as 5 (Herbicidal ratio of 90% or more (almost completely withered)). For the same molecule, the “K: Lolium multiflorum Lam., herbicidal effect grade” value was 3 (Herbicidal ratio of 40% or higher and lower than 70%) with Lolium multiflorum Lam. [2]; 5 (Herbicidal ratio of 90% or more (almost completely withered)) in the data set on Lolium multiflorum Lam. [6] (setting [10]). The “L: Apera spica-venti, herbicidal effect grade” value (“L: Apera spica-venti” for short) in the data set with Apera spica-venti [3] was 3 (Herbicidal ratio of 40% or higher and lower than 70%); in the data set on Apera spica-venti [9] (setting [10]), 5 (Herbicidal ratio of 90% or more (almost completely withered)). Also, the “b: directly sowed rice plant, effect on crop grade” value in the data set on rice is reported as 5 (Herbicidal ratio of 90% or more (almost completely withered)). Also, in the data set on Veronica persica (setting [10]), the “R: Veronica persica, herbicidal effect grade” value (shortened to “R: Veronica persica”) was 0 (Herbicidal ratio of 5% or lower (almost no effect)). Besides, the “Herbicidal effect grade, C: Monochoria vaginalis” value (shortened to “Herbicidal effect grade, C”) in the data set on Monochoria vaginalis was 5 (Herbicidal ratio of 90% or more (almost completely withered)). The “I: Avena fatua, herbicidal effect grade” value with Avena fatua (setting [10]) was 4 (Herbicidal ratio of 70% or higher and lower than 90%). The “H: Echinochloa crus-galli var. crus-galli, herbicidal effect grade” value in [4] and in [7] (setting [10]) was 5 (Herbicidal ratio of 90% or more (almost completely withered)) throughout. In data set [5], the “Herbicidal effect grade, A: Echinochloa oryzacola Vasing.” value is given as 5 (Herbicidal ratio of 90% or more (almost completely withered)). Besides, the “F: Digitaria ciliaris, herbicidal effect grade” value (“F: Digitaria ciliaris” below) with Digitaria ciliaris (setting [10]) is 5 (Herbicidal ratio of 90% or more (almost completely withered)). Further, the “d: soybean, effect on crop grade” value in the data set on soybean is recorded as 0 (Herbicidal ratio of 5% or lower (almost no effect)). Further, in the data set with rapeseed, the “g: rapeseed, effect on crop grade” value is 0 (Herbicidal ratio of 5% or lower (almost no effect)).
For `CC(=O)C(C(C)=O)C1CC(O)=C(c2c(C)cc(C)cc2C)C1=O` (stereo not drawn) [2-002], the “P: Stellaria media” value with Stellaria media [1] (320 g/ha) was 0 (Herbicidal ratio of 5% or lower (almost no effect)); in the data set on Stellaria media [8], 2 (Herbicidal ratio of 20% or higher and lower than 40%). Moreover, in the data set with transplanted rice plant, the “Effect grade on crop, a: transplanted rice plant” value is 0 (Herbicidal ratio of 5% or lower (almost no effect)). Further, the “K: Lolium multiflorum Lam., herbicidal effect grade” value with Lolium multiflorum Lam. [2] is listed as 5 (Herbicidal ratio of 90% or more (almost completely withered)); with Lolium multiflorum Lam. [6] (320 g/ha), 0 (Herbicidal ratio of 5% or lower (almost no effect)). For the same molecule, the “L: Apera spica-venti” value is 2 (Herbicidal ratio of 20% or higher and lower than 40%) in the data set on Apera spica-venti [3]; 0 (Herbicidal ratio of 5% or lower (almost no effect)) in the data set with Apera spica-venti [9] (320 g/ha). In addition, the “b: directly sowed rice plant, effect grade on crop” value in the data set on rice (320 g/ha) is 1 (Herbicidal ratio of 5% or higher and lower than 20%). In addition, the “R: Veronica persica” value in the data set with Veronica persica (320 g/ha) was 0 (Herbicidal ratio of 5% or lower (almost no effect)). In the data set with Monochoria vaginalis, the “Herbicidal effect grade, C” value is reported as 0 (Herbicidal ratio of 5% or lower (almost no effect)). Moreover, in the data set on Avena fatua (320 g/ha), the “I: Avena fatua, herbicidal effect grade” value is listed as 0 (Herbicidal ratio of 5% or lower (almost no effect)). In addition, the “H: Echinochloa crus-galli var. crus-galli, herbicidal effect grade” value in data set [4] was 3 (Herbicidal ratio of 40% or higher and lower than 70%); in data set [7] (320 g/ha), 0 (Herbicidal ratio of 5% or lower (almost no effect)). Further, the “Herbicidal effect grade, A: Echinochloa oryzacola Vasing.” value in data set [5] was 0 (Herbicidal ratio of 5% or lower (almost no effect)). In addition, in the data set with Digitaria ciliaris (320 g/ha), the “F: Digitaria ciliaris” value is 0 (Herbicidal ratio of 5% or lower (almost no effect)). Besides, in the data set with soybean (320 g/ha), the “d: soybean, effect grade on crop” value is given as 0 (Herbicidal ratio of 5% or lower (almost no effect)). Further, the “g: rapeseed, effect grade on crop” value in the data set on rapeseed (320 g/ha) is 0 (Herbicidal ratio of 5% or lower (almost no effect)).
`CON=C(C)CC1CC(O)=C(c2c(C)cc(-c3ccc(Cl)nc3)cc2C)C1=O` (mixture of isomers) [6-035]: the “P: Stellaria media” value with Stellaria media [1] (setting [10]) was 3 (Herbicidal ratio of 40% or higher and lower than 70%); in the data set on Stellaria media [8] it was 3 (Herbicidal ratio of 40% or higher and lower than 70%). Besides, the “Effect grade on crop, a: transplanted rice plant” value in the data set on transplanted rice plant is 5 (Herbicidal ratio of 90% or more (almost completely withered)). In addition, the “K: Lolium multiflorum Lam., herbicidal effect grade” value in the data set with Lolium multiflorum Lam. [2] and in the data set on Lolium multiflorum Lam. [6] (setting [10]) was 5 (Herbicidal ratio of 90% or more (almost completely withered)) in each case. Besides, the “L: Apera spica-venti” value in the data set on Apera spica-venti [3] and in the data set with Apera spica-venti [9] (setting [10]) was 5 (Herbicidal ratio of 90% or more (almost completely withered)) throughout. Moreover, the “b: directly sowed rice plant, effect on crop grade” value in the data set with rice is given as 5 (Herbicidal ratio of 90% or more (almost completely withered)). Also, the “R: Veronica persica” value in the data set on Veronica persica (setting [10]) was 3 (Herbicidal ratio of 40% or higher and lower than 70%). Besides, the “Herbicidal effect grade, C” value with Monochoria vaginalis was 0 (Herbicidal ratio of 5% or lower (almost no effect)). Moreover, the “I: Avena fatua, herbicidal effect grade” value with Avena fatua (setting [10]) is 3 (Herbicidal ratio of 40% or higher and lower than 70%). The “H: Echinochloa crus-galli var. crus-galli, herbicidal effect grade” value in data set [4] and in [7] (setting [10]) was 5 (Herbicidal ratio of 90% or more (almost completely withered)) throughout. The “Herbicidal effect grade, A: Echinochloa oryzacola Vasing.” value in data set [5] is on record as 5 (Herbicidal ratio of 90% or more (almost completely withered)). Further, the “F: Digitaria ciliaris” value with Digitaria ciliaris (setting [10]) is 5 (Herbicidal ratio of 90% or more (almost completely withered)). Further, the “d: soybean, effect on crop grade” value in the data set with soybean is reported as 0 (Herbicidal ratio of 5% or lower (almost no effect)). Also, the “g: rapeseed, effect on crop grade” value with rapeseed is on record as 0 (Herbicidal ratio of 5% or lower (almost no effect)).
